How the values were obtained:
Test in all cases: radiometric filter-binding kinase assay, Kinase HotSpot
Settings in all cases: compound 0.5 µM; ATP 10 µM
BRSK1 (human) = BRSK1 (human) (UniProt Q8TDC3)
BTK (human) = BTK (human) (UniProt Q06187)
CAMK1 (human) = CAMK1 (human) (UniProt Q14012)
CAMK2G (human) = CAMK2G (human) (UniProt Q13555)
CAMKK2 (human) = CAMKK2 (human) (UniProt Q96RR4)
CDC42BPA (human) = CDC42BPA (human) (UniProt Q5VT25)
CDK3 CCNE1 (human) = CDK3 CCNE1 (human) (UniProt Q00526+P24864)
CLK4 (human) = CLK4 (human) (UniProt Q9HAZ1)
CSK (human) = CSK (human) (UniProt P41240)
CSNK1D (human) = CSNK1D (human) (UniProt P48730)
DYRK4 (human) = DYRK4 (human) (UniProt Q9NR20)
EGFR (human) = EGFR (human) (UniProt P00533)
EPHA2 (human) = EPHA2 (human) (UniProt P29317)
EPHA5 (human) = EPHA5 (human) (UniProt P54756)
EPHB1 (human) = EPHB1 (human) (UniProt P54762)
EPHB2 (human) = EPHB2 (human) (UniProt P29323)
ERBB2 (human) = ERBB2 (human) (UniProt P04626)
FGFR3 (human) = FGFR3 (human) (UniProt P22607)
GRK6 (human) = GRK6 (human) (UniProt P43250)
GSK3A (human) = GSK3A (human) (UniProt P49840)
GSK3B (human) = GSK3B (human) (UniProt P49841)
KDR (human) = KDR (human) (UniProt P35968)
MAP2K1 (human) = MAP2K1 (human) (UniProt Q02750)
MAP3K2 (human) = MAP3K2 (human) (UniProt Q9Y2U5)
MAP3K9 (human) = MAP3K9 (human) (UniProt P80192)
MAP4K5 (human) = MAP4K5 (human) (UniProt Q9Y4K4)
MAPK1 (human) = MAPK1 (human) (UniProt P28482)
MAPK3 (human) = MAPK3 (human) (UniProt P27361)
NEK4 (human) = NEK4 (human) (UniProt P51957)
PAK6 (human) = PAK6 (human) (UniProt Q9NQU5)
PIM3 (human) = PIM3 (human) (UniProt Q86V86)
PRKG2 (human) = PRKG2 (human) (UniProt Q13237)
RPS6KA3 KD1 KD2 (human) = RPS6KA3 KD1 KD2 (human) (UniProt P51812)
RPS6KA5 KD2 (human) = RPS6KA5 KD2 (human) (UniProt O75582)
SRPK1 (human) = SRPK1 (human) (UniProt Q96SB4)
SRPK3 (human) = SRPK3 (human) (UniProt Q9UPE1)
STK25 (human) = STK25 (human) (UniProt O00506)
SYK (human) = SYK (human) (UniProt P43405)
TGFBR1 (human) = TGFBR1 (human) (UniProt P36897)
ULK1 (human) = ULK1 (human) (UniProt O75385)
WEE1 (human) = WEE1 (human) (UniProt P30291)
ZAP70 (human) = ZAP70 (human) (UniProt P43403)
Chain of ZAP70 (human) (P43403 whole entry, looked up): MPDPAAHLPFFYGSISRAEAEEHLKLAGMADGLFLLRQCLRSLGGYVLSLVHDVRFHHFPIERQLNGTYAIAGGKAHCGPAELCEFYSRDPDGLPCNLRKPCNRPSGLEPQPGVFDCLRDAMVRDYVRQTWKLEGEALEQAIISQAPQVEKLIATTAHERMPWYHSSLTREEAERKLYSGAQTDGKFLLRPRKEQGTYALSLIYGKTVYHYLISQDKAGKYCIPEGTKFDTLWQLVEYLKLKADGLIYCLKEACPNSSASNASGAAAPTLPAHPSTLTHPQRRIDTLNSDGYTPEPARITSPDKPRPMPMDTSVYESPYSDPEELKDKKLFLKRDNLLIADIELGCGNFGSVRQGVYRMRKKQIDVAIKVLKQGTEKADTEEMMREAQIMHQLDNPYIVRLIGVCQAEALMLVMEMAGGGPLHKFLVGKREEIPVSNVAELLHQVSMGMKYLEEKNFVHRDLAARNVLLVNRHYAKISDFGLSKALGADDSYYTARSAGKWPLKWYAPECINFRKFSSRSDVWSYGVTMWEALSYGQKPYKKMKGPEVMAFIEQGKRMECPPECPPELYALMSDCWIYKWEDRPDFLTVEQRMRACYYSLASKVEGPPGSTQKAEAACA

Chain of SRPK3 (human) (Q9UPE1 whole entry, looked up): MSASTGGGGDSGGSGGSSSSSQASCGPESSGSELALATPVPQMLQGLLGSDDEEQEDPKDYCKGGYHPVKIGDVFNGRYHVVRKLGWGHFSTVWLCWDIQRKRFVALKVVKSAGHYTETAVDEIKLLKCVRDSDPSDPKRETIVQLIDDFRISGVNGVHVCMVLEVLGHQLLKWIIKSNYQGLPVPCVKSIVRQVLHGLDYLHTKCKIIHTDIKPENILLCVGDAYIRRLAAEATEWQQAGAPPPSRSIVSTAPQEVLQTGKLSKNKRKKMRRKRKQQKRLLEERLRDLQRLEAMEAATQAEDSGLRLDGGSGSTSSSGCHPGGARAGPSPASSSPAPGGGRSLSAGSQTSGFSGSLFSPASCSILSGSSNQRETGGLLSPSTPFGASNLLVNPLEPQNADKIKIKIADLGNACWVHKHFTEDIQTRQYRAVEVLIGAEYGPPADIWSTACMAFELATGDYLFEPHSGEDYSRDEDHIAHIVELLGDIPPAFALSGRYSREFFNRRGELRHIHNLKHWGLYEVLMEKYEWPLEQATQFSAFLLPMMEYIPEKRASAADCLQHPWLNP
Chain of SRPK1 (human) (Q96SB4 whole entry, looked up): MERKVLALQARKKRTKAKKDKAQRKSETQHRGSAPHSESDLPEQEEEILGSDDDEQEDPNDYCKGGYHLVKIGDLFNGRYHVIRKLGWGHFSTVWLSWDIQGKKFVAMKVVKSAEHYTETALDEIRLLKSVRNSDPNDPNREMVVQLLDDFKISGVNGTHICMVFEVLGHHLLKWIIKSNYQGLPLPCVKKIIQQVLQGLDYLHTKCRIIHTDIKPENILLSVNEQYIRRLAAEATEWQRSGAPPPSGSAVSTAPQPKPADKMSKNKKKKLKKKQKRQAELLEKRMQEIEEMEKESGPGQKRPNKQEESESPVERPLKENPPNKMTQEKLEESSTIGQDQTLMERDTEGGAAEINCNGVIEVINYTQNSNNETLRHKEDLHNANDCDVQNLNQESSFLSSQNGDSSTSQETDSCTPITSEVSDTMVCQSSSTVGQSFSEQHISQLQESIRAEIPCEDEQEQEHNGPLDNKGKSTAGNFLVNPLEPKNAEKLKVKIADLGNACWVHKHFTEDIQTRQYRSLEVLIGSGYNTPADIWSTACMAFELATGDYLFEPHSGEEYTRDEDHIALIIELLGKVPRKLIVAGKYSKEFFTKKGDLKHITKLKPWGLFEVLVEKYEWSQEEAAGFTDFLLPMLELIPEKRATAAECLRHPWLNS
Chain of NEK4 (human) (P51957 whole entry, looked up): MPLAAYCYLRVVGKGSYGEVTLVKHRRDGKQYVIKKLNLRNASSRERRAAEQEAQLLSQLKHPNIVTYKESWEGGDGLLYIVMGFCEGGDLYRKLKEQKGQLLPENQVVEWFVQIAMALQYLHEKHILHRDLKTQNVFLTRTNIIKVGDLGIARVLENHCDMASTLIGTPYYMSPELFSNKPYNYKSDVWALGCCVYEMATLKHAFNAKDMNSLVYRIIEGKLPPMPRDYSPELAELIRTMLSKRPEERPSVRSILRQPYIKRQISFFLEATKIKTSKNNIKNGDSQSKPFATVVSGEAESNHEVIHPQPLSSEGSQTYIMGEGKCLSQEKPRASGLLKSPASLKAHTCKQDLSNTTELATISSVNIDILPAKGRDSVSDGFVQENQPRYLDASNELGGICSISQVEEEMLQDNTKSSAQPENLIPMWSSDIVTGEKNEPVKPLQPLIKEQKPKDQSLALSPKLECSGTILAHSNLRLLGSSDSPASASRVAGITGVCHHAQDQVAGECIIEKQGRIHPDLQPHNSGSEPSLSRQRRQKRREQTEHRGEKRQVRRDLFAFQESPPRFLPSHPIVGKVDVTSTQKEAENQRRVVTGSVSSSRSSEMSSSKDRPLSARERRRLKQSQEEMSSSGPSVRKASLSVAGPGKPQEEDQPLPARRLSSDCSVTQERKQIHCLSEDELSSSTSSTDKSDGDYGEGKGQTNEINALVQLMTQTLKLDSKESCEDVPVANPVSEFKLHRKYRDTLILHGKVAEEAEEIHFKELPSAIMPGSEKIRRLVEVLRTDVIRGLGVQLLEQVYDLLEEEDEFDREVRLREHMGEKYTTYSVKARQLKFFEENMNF
Chain of CDC42BPA (human) (Q5VT25 whole entry, looked up): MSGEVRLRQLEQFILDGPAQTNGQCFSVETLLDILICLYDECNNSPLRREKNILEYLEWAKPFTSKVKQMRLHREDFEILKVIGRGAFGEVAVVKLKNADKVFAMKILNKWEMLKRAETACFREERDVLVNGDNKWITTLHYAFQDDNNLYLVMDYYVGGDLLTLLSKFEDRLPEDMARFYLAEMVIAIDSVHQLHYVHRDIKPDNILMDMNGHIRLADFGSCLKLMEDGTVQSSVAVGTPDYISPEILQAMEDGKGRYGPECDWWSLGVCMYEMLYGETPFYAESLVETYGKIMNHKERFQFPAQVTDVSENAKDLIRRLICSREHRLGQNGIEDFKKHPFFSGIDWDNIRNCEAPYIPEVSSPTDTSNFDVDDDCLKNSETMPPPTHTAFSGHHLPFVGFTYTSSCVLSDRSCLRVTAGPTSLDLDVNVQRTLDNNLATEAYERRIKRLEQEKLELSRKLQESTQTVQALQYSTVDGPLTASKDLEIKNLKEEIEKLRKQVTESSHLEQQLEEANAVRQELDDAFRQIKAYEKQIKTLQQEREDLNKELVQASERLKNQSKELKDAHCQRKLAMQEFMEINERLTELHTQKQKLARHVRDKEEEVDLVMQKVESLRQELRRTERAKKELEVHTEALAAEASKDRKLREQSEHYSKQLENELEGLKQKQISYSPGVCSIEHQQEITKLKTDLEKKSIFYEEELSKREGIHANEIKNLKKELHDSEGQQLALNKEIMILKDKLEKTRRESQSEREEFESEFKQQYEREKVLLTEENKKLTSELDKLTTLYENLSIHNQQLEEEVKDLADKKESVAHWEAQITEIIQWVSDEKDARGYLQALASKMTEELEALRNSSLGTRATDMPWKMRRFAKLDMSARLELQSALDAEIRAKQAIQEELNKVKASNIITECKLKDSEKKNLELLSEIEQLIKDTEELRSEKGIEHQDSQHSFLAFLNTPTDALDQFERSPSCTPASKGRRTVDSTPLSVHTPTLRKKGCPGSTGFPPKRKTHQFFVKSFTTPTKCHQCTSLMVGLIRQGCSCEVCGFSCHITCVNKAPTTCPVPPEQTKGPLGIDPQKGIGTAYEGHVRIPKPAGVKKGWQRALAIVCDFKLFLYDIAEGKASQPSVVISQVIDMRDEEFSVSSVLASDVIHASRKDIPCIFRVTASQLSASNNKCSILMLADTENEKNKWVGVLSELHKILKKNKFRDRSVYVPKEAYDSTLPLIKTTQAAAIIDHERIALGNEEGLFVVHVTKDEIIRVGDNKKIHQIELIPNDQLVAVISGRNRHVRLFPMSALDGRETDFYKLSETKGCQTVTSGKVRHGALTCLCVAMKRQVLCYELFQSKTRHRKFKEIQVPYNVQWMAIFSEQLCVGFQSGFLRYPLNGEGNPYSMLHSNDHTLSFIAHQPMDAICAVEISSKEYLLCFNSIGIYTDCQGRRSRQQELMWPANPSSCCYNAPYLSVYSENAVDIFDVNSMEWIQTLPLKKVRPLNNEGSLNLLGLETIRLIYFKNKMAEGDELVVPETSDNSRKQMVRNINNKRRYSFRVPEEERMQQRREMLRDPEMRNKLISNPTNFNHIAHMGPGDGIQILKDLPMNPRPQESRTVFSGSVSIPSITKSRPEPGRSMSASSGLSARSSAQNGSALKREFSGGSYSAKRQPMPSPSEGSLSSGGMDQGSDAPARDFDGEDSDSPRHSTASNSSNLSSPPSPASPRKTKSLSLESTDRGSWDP

Compound `NC(=O)c1cccc(-c2cc(Nc3ccc(OC(F)(F)F)cc3)ncn2)c1` has a residual activity (BRSK1 (human)) of 98.4%, a residual activity (BTK (human)) of 99.1% and a residual activity (CAMK1 (human)) of 97.5%. For the same compound, the residual activity (CAMK2G (human)) was 102%, the residual activity (CAMKK2 (human)) was 99.1% and the residual activity (CDC42BPA (human)) was 99.3%. The residual activity (CDK3 CCNE1 (human)) was 98.8%, the residual activity (CLK4 (human)) was 97.8% and the residual activity (CSK (human)) was 104%. It also gave a residual activity (CSNK1D (human)) of 99.1%, a residual activity (DYRK4 (human)) of 96.3% and a residual activity (EGFR (human)) of 96.6%. The residual activity (EPHA2 (human)) was 94.9%, the residual activity (EPHA5 (human)) was 103% and the residual activity (EPHB1 (human)) was 105%. The residual activity (EPHB2 (human)) was 102%, the residual activity (ERBB2 (human)) was 89.5% and the residual activity (FGFR3 (human)) was 93.2%. For the same compound, the residual activity (GRK6 (human)) was 101%, the residual activity (GSK3A (human)) was 93.9% and the residual activity (GSK3B (human)) was 110%. It also gave a residual activity (KDR (human)) of 99.8%, a residual activity (MAP2K1 (human)) of 95.5% and a residual activity (MAP3K2 (human)) of 79.5%. It also gave a residual activity (MAP3K9 (human)) of 95.7%, a residual activity (MAP4K5 (human)) of 97.8% and a residual activity (MAPK1 (human)) of 96.6%. For the same compound, the residual activity (MAPK3 (human)) was 94.5%, the residual activity (NEK4 (human)) was 98% and the residual activity (PAK6 (human)) was 102%. It also gave a residual activity (PIM3 (human)) of 88.6%, a residual activity (PRKG2 (human)) of 96.4% and a residual activity (RPS6KA3 KD1 KD2 (human)) of 101%. For the same compound, the residual activity (RPS6KA5 KD2 (human)) was 104%, the residual activity (SRPK1 (human)) was 98% and the residual activity (SRPK3 (human)) was 94.3%. For the same compound, the residual activity (STK25 (human)) was 94.5%, the residual activity (SYK (human)) was 99.9% and the residual activity (TGFBR1 (human)) was 103%. For the same compound, the residual activity (ULK1 (human)) was 97.5%, the residual activity (WEE1 (human)) was 98.9% and the residual activity (ZAP70 (human)) was 97.1%.
For `CCCCc1c(-c2ccc(OC)cc2)[nH]c2nccnc12`, the residual activity (BRSK1 (human)) was 89.1%, the residual activity (BTK (human)) was 64.7% and the residual activity (CAMK1 (human)) was 90.9%. For the same compound, the residual activity (CAMK2G (human)) was 107%, the residual activity (CAMKK2 (human)) was 79.1% and the residual activity (CDC42BPA (human)) was 99.7%. For the same compound, the residual activity (CDK3 CCNE1 (human)) was 83.8%, the residual activity (CLK4 (human)) was 73.2% and the residual activity (CSK (human)) was 87%. It also gave a residual activity (CSNK1D (human)) of 94.7%, a residual activity (DYRK4 (human)) of 97.7% and a residual activity (EGFR (human)) of 103%. It also gave a residual activity (EPHA2 (human)) of 87.9%, a residual activity (EPHA5 (human)) of 91.6% and a residual activity (EPHB1 (human)) of 76%. For the same compound, the residual activity (EPHB2 (human)) was 88.8%, the residual activity (ERBB2 (human)) was 96.4% and the residual activity (FGFR3 (human)) was 86.8%. The residual activity (GRK6 (human)) was 88.3%, the residual activity (GSK3A (human)) was 55.8% and the residual activity (GSK3B (human)) was 70.2%. The residual activity (KDR (human)) was 88.8%, the residual activity (MAP2K1 (human)) was 88.7% and the residual activity (MAP3K2 (human)) was 90.9%. The residual activity (MAP3K9 (human)) was 39.8%, the residual activity (MAP4K5 (human)) was 63.8% and the residual activity (MAPK1 (human)) was 103%. It also gave a residual activity (MAPK3 (human)) of 111%, a residual activity (NEK4 (human)) of 81.3% and a residual activity (PAK6 (human)) of 96.8%. The residual activity (PIM3 (human)) was 90.9%, the residual activity (PRKG2 (human)) was 93.9% and the residual activity (RPS6KA3 KD1 KD2 (human)) was 88%. The residual activity (RPS6KA5 KD2 (human)) was 104%, the residual activity (SRPK1 (human)) was 100% and the residual activity (SRPK3 (human)) was 97.9%. The residual activity (STK25 (human)) was 90.3%, the residual activity (SYK (human)) was 47.5% and the residual activity (TGFBR1 (human)) was 95%. For the same compound, the residual activity (ULK1 (human)) was 87.9%, the residual activity (WEE1 (human)) was 85.9% and the residual activity (ZAP70 (human)) was 74.2%.
In the case of `c1ccc2c(-c3ccncc3)c[nH]c2c1`, the residual activity (BRSK1 (human)) is reported as 90.3%, the residual activity (BTK (human)) is reported as 104% and the residual activity (CAMK1 (human)) is reported as 108%. For the same compound, the residual activity (CAMK2G (human)) was 92.6%, the residual activity (CAMKK2 (human)) was 113% and the residual activity (CDC42BPA (human)) was 99.9%. It also gave a residual activity (CDK3 CCNE1 (human)) of 98.2%, a residual activity (CLK4 (human)) of 101% and a residual activity (CSK (human)) of 107%. For the same compound, the residual activity (CSNK1D (human)) was 105%, the residual activity (DYRK4 (human)) was 98.7% and the residual activity (EGFR (human)) was 97.3%. For the same compound, the residual activity (EPHA2 (human)) was 106%, the residual activity (EPHA5 (human)) was 99.4% and the residual activity (EPHB1 (human)) was 108%. It also gave a residual activity (EPHB2 (human)) of 114%, a residual activity (ERBB2 (human)) of 95.6% and a residual activity (FGFR3 (human)) of 98.9%. For the same compound, the residual activity (GRK6 (human)) was 103%, the residual activity (GSK3A (human)) was 103% and the residual activity (GSK3B (human)) was 104%. The residual activity (KDR (human)) was 94.2%, the residual activity (MAP2K1 (human)) was 96.5% and the residual activity (MAP3K2 (human)) was 94.9%. The residual activity (MAP3K9 (human)) was 83.3%, the residual activity (MAP4K5 (human)) was 106% and the residual activity (MAPK1 (human)) was 100%. The residual activity (MAPK3 (human)) was 98.9%, the residual activity (NEK4 (human)) was 95.4% and the residual activity (PAK6 (human)) was 104%. It also gave a residual activity (PIM3 (human)) of 103%, a residual activity (PRKG2 (human)) of 38.3% and a residual activity (RPS6KA3 KD1 KD2 (human)) of 97.4%. The residual activity (RPS6KA5 KD2 (human)) was 96.7%, the residual activity (SRPK1 (human)) was 108% and the residual activity (SRPK3 (human)) was 96%. It also gave a residual activity (STK25 (human)) of 117%, a residual activity (SYK (human)) of 98.6% and a residual activity (TGFBR1 (human)) of 103%. The residual activity (ULK1 (human)) was 83.8%, the residual activity (WEE1 (human)) was 89.3% and the residual activity (ZAP70 (human)) was 105%.
`CN(C)c1ccc(/C=C2\C(=O)Nc3ccccc32)cc1` showed a residual activity (BRSK1 (human)) of 99.6%, a residual activity (BTK (human)) of 104% and a residual activity (CAMK1 (human)) of 104%. The residual activity (CAMK2G (human)) was 99.6%, the residual activity (CAMKK2 (human)) was 100% and the residual activity (CDC42BPA (human)) was 101%. The residual activity (CDK3 CCNE1 (human)) was 98.7%, the residual activity (CLK4 (human)) was 94.1% and the residual activity (CSK (human)) was 96.9%. For the same compound, the residual activity (CSNK1D (human)) was 69%, the residual activity (DYRK4 (human)) was 94.8% and the residual activity (EGFR (human)) was 92.1%. For the same compound, the residual activity (EPHA2 (human)) was 107%, the residual activity (EPHA5 (human)) was 109% and the residual activity (EPHB1 (human)) was 102%. The residual activity (EPHB2 (human)) was 86.5%, the residual activity (ERBB2 (human)) was 91% and the residual activity (FGFR3 (human)) was 96.3%. It also gave a residual activity (GRK6 (human)) of 102%, a residual activity (GSK3A (human)) of 104% and a residual activity (GSK3B (human)) of 111%. For the same compound, the residual activity (KDR (human)) was 94.3%, the residual activity (MAP2K1 (human)) was 97.8% and the residual activity (MAP3K2 (human)) was 99.8%. For the same compound, the residual activity (MAP3K9 (human)) was 90.2%, the residual activity (MAP4K5 (human)) was 84.5% and the residual activity (MAPK1 (human)) was 96.4%. It also gave a residual activity (MAPK3 (human)) of 102%, a residual activity (NEK4 (human)) of 102% and a residual activity (PAK6 (human)) of 96.9%. The residual activity (PIM3 (human)) was 102%, the residual activity (PRKG2 (human)) was 105% and the residual activity (RPS6KA3 KD1 KD2 (human)) was 92.6%. It also gave a residual activity (RPS6KA5 KD2 (human)) of 98.7%, a residual activity (SRPK1 (human)) of 95.4% and a residual activity (SRPK3 (human)) of 98.7%. The residual activity (STK25 (human)) was 90.2%, the residual activity (SYK (human)) was 90.4% and the residual activity (TGFBR1 (human)) was 96.7%. The residual activity (ULK1 (human)) was 91.9%, the residual activity (WEE1 (human)) was 88.6% and the residual activity (ZAP70 (human)) was 89.9%.

From the kinase profiling compilation of Christmann-Franck et al. (2016)
